# Laboratory results reported in patent US20250353835A1, “N-TETRAZOLYL ARYL UREA-BASED DERIVATIVES, PREPARATION METHOD THEREFOR, AND USE THEREOF” (Hangzhou Yirui Pharmaceutical Technology Co., Ltd, priority 2022, published 2025).
# Experiments:
# Type in all cases: in vitro ADME
# CYP3A4 = target: T1, CYP3A4 (Homo sapiens, UniProt P08684); test: CYP450 inhibition in human liver microsomes (substrate method, LC-MS/MS); details: read-out: CYP inhibition IC50 [μM], 3A4
# T1 construct: from tissue; host or cells: human liver microsomes
# Protocol: (§1) In addition, the LC-MS/MS method was used to determine the substrate metabolites of 5 major subtypes of human liver microsomal CYP450 enzymes (including CYP1A2, CYP2D6, CYP2C8, CYP2C9, and CYP3A4). The substrate method was used to determine the activity of human liver microsomal CYP450 enzyme. The established incubation system was verified using known inhibitors to investigate the inhibitory effect of the compound on CYP450 enzyme. For the enzyme induction test, a primary cultured human hepatocyte incubation system was used. 3-methylcholanthrene, phenobarbital, and rifampicin were used as positive control inducers of CYP1A2, CYP2B6, and CYP3A4, and phenacetin, bupropion, and testosterone were used as the substrate for CYP1A2, CYP2B6, and CYP3A4. The CYP450 enzyme activity was calculated by measuring the generation rate of 3 specific substrate metabolites in the incubation solution. Meanwhile, the total RNA was extracted from the human hepatocytes after incubation, and the real-time fluorescence quantitative PCR method was used to determine the mRNA expression level of CYP1A2, […], and CYP3A4. The enzyme activity and mRNA transcription level were used as endpoints to investigate the inductive effect of the compound on human liver P450 isoenzymes CYP1A2, […], and CYP3A4. The liver microsomal metabolism parameters in vitro are shown in Table 2B3 taking Compound 8 as an example.
# CYP1A2 = target: T2, CYP1A2 (Homo sapiens, UniProt P05177); test: as above; details: read-out: CYP inhibition IC50 [μM], 1A2
# T2 construct: The substrate method was used to determine the activity of human liver microsomal CYP450 enzyme; from tissue; host or cells: human liver microsomes
# T2 sequence (P05177 1-516): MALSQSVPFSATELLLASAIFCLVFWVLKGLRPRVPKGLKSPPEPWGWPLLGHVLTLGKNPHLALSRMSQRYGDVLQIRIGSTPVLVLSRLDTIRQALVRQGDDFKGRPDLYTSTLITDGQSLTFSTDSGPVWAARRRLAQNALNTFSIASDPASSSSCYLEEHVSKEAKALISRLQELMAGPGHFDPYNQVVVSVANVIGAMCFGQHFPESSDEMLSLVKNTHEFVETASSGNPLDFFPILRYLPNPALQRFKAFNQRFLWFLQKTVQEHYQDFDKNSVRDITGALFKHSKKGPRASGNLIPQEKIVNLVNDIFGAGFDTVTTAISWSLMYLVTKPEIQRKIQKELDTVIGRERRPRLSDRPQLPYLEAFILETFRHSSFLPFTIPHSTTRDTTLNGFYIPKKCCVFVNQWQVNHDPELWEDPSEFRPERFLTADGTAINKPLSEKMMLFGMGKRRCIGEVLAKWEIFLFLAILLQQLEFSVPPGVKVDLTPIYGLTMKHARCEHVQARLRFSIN
# Protocol: as §1
# CYP2C8 = target: T3, CYP2C8 (Homo sapiens, UniProt P10632); test: as above; details: read-out: CYP inhibition IC50 [μM], 2C8
# T3 construct: The substrate method was used to determine the activity of human liver microsomal CYP450 enzyme; from tissue; host or cells: human liver microsomes
# T3 sequence (P10632 1-490): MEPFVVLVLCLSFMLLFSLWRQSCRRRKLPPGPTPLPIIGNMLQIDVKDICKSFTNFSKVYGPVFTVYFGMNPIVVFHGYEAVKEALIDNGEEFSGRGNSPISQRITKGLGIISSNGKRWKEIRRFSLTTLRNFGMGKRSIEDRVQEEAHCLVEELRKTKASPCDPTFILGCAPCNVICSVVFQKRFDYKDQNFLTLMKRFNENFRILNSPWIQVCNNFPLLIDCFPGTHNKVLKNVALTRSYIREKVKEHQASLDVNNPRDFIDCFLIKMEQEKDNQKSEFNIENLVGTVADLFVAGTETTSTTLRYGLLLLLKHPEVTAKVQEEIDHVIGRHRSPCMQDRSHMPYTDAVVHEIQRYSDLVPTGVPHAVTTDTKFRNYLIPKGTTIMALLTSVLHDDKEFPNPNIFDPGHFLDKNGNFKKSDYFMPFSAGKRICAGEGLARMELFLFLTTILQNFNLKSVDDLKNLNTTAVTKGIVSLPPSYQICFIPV
# Protocol: as §1
# CYP2D6 = target: T4, CYP2D6 (Homo sapiens, UniProt P10635); test: as above; details: read-out: CYP inhibition IC50 [μM], 2D6
# T4 construct: The substrate method was used to determine the activity of human liver microsomal CYP450 enzyme; from tissue; host or cells: human liver microsomes
# Protocol: as §1
# CYP2C9 = target: T5, CYP2C9 (Homo sapiens, UniProt P11712); test: as above; details: read-out: CYP inhibition IC50 [μM], 2C9
# T5 construct: The substrate method was used to determine the activity of human liver microsomal CYP450 enzyme; from tissue; host or cells: human liver microsomes
# Protocol: as §1
# [1] = Liver microsomal metabolism in vitro, rat LM clearance; details: rat liver microsomes in vitro
# Protocol: as §1
# T5 sequence (P11712 whole entry): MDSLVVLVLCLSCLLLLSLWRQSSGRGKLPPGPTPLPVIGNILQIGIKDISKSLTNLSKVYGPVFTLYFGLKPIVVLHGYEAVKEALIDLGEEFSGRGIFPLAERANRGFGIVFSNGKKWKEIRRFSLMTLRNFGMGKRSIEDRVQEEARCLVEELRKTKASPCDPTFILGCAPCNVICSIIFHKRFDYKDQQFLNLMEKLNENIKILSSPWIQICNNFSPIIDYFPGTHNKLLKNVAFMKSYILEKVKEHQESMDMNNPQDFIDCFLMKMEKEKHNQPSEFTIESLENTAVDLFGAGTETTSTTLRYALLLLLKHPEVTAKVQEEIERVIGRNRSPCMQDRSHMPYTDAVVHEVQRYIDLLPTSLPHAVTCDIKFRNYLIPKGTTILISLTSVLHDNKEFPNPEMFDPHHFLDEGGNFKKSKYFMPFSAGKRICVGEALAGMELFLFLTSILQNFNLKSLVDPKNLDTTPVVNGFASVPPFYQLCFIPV
# T4 sequence (P10635 whole entry): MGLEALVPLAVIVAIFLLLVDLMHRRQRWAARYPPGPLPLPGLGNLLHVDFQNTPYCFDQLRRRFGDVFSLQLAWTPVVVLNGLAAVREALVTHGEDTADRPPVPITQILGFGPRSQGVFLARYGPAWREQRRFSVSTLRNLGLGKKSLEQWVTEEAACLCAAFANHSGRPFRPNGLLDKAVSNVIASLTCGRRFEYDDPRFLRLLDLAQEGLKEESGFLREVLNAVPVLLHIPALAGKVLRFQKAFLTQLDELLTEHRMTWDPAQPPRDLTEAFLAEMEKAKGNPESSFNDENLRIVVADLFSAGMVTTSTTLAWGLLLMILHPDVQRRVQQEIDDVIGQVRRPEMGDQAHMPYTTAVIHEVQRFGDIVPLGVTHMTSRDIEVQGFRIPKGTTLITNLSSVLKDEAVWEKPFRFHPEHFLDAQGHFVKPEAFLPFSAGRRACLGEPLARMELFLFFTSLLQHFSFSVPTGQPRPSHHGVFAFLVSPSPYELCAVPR
# T1 sequence (P08684 whole entry): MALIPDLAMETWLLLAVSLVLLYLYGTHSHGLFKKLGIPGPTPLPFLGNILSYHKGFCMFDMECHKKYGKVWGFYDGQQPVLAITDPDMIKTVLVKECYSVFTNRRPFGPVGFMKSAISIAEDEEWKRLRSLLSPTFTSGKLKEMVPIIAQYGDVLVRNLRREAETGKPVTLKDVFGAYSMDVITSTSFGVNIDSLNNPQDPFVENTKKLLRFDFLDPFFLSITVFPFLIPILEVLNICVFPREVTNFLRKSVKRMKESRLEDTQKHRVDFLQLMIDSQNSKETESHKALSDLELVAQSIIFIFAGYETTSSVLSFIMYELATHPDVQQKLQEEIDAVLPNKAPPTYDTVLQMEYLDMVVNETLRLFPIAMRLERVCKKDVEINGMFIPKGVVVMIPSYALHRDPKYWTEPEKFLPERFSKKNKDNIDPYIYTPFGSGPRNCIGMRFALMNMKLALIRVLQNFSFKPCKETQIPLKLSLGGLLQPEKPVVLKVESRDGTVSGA
structure (smiles),measurement,setting,value
"CCOc1ccc(-c2c(F)cc(NC(=O)N3CCC(C(C)(C)C)CC3)cc2-c2nn[nH]n2)cn1 [Compound 8, 4-(tert-butyl)-N-(4-(6-ethoxypyrid-3-yl)-3-fluoro-5-(2H-tetrazol-5-yl)phenyl)piperidine-1-carboxamide]",IC50,CYP3A4,50 µM
same,IC50,CYP1A2,50 µM
same,IC50,CYP2C8,50 µM
same,IC50,CYP2D6,50 µM
same,IC50,CYP2C9,50 µM
same,Rat LM clearance,[1],9.83 mL/min/kg
